What was measured:
[1] = biological target: T1, recombinant human c-Kit (Homo sapiens, UniProt P10721); test: c-Kit Kinase Assay (ADP-Glo); format: biochemical; conditions: In vitro kinase activity
T1 construct: purchased Signalchem
Experimental: (§1) ADP-Glo assay kit was purchased from Promega. Magnesium chloride (MgCl2), ethylene glycol-bis(8-aminoethyl ether)-N,N,N′,N′-tetraacetic acid (EGTA), manganese (II) chloride (MnCl2), bovine serum albumin (BSA), 1,4-dithiothreitol (DTT) and dimethyl sulfoxide (DMSO) were purchased from Sigma-Aldrich. HEPES buffer was purchased from Gibco. c-Kit kinase and poly (4:1 Glu, Tyr) peptide were purchased from Signalchem.
(§2) c-Kit kinase activity was measured by Promega's ADP-Glo™ Assay. In this assay, 100ng of recombinant human c-Kit is incubated with 5 μL of compounds (0.5% DMSO), 5 μL of Poly (4:1 Glu, Tyr) peptide (50 ng/μl) and 5 μL of ATP (50 μM) in buffer (50 mM HEPES, pH7.5; 10 mM MgCl2; 1 mM EGTA; 0.05% BSA; 50μM DTT; 2mM MnCl2). The assay was started by incubating the reaction mixture in a 96-well plate at 30° C. for 120-min. After the incubation, 25 μL ADP-Glo reagent was added and the reaction was incubated at room temperature for 40-min to stop the reaction and degrade residual ATP. The ADP product was then converted to ATP by adding 50 μL per well of detection reagent. Luminescence was detected after 30-min room temperature incubation with the Molecular device I3X plate reader. The IC50 values were calculated from a series of percent inhibition values determined at a range of inhibitor concentration using software routines as implemented in the GraphPad Prism 8 software and Sigma Plot 13.0.

[2] = biological target: T2, recombinant human c-Kit (D816V) (Homo sapiens, UniProt P10721, D816V); test: c-Kit (D816V) Kinase Assay (ADP-Glo); format: biochemical; conditions: In vitro kinase activity
T2 construct: purchased Signalchem
Experimental: as §1, with “glycol-bis(β-aminoethyl” for “glycol-bis(8-aminoethyl”, “(EGTA),” for “(EGTA), manganese (II) chloride (MnCl2),”, “c-Kit (D816V)” for “c-Kit”
as §2, with “c-Kit (D816V)” for “c-Kit”, “Promega's ADP-GIoTM” for “Promega's ADP-Glo™”, “assay, 2.5ng” for “assay, 100ng”, “ATP (15” for “ATP (50”, “BSA; 50 μM DTT).” for “BSA; 50μM DTT; 2mM MnCl2).”

[3] = biological target: T3, recombinant human PDGFRα (Homo sapiens, UniProt P16234); test: PDGFRα Kinase Assay (ADP-Glo); format: biochemical; conditions: In vitro kinase activity, read-out: PDGFRa IC50
T3 construct: purchased Signalchem
Experimental: as §1, with “glycol-bis(p-aminoethyl” for “glycol-bis(8-aminoethyl”, “(EGTA),” for “(EGTA), manganese (II) chloride (MnCl2),”, “PDGFRα Kinase” for “c-Kit kinase”
(§3) PDGFRα kinase activity was measured by Promega's ADP-Glo™ Assay. In this assay, 40ng of recombinant human PDGFRα is incubated with 5 μL of compounds (0.5% DMSO), 5 μL of Poly (4:1 Glu, Tyr) peptide (100 ng/μl) and 5 μL of ATP (25 pM) in buffer (50 mM HEPES, pH7.5; 10 mM MgCl2; 1 mM EGTA; 0.05% BSA; 50 μM DTT). The assay was started by incubating the reaction mixture in a 96-well plate at 30° C. for 60-min. After the incubation, 25 μL ADP-Glo reagent was added and the reaction was incubated at room temperature for 40-min to stop the reaction and degrade residual ATP. The ADP product was then converted to ATP by adding 50 μL per well of detection reagent. Luminescence was detected after 30-min room temperature incubation with the Molecular device I3X plate reader. The IC50 values were calculated from a series of percent inhibition values determined at a range of inhibitor concentration using software routines as implemented in the GraphPad Prism 8 software and Sigma Plot 13.0.

[4] = biological target: T4, recombinant human PDGFRα (D842V) (Homo sapiens, UniProt P16234, D842V); test: PDGFRα (D842V) Kinase Assay (ADP-Glo); format: biochemical; conditions: In vitro kinase activity
T4 construct: purchased Signalchem
Experimental: ADP-Glo assay kit was purchased from Promega. Magnesium chloride (MgCl2), ethylene glycol-bis(p-aminoethyl ether)-N, N, N′, N′-tetraacetic acid (EGTA), bovine serum albumin (BSA), 1,4-dithiothreitol (DTT) and dimethyl sulfoxide (DMSO) were purchased from Sigma-Aldrich. HEPES buffer was purchased from Gibco. PDGFRα (D842V) Kinase and poly (4:1 Glu, Tyr) peptide were purchased from Signalchem.
as §3, with “PDGFRα (D842V)” for “PDGFRα”, “10 ng” for “40ng”, “([…]” for “(25”, “[…]” for “50 μM”, “120-min.” for “60-min.”

[5] = test system: K562 human leukemia cell line; test: K562 Cell Proliferation Assay (MTS); format: cell-based; conditions: K562 cells, 48 hr incubation, MTS cell viability
Experimental: K562 human leukemia cell line purchased from Korean cell line bank (KCLB) and were cultured in Roswell Park Memorial Institute (RPMI) 1640 Medium supplemented with 10% fetal bovine serum (FBS) and 1% penicillin-streptomycin in a humidified incubator in an atmosphere of 5% CO2 at 37° C. Cells were seeded in 96-well plates at a density of 2×10^3 cells/well in 100 […] media. Compounds were diluted as two times concentration in 100 μl of media and added to each well. Compounds were 5-fold serially diluted for 6 points and treated from 5 μM to 1.6 nM in K562 cells. After 48 hr incubation, Compound treated cells were analyzed for anti-proliferation assay. Cell viability was investigated using the Cell Titer 96 Aqueous One Solution Reagent. Briefly, 200 μl of media were supplemented with 40 μl of MTS solution, incubated for 4hr, and then the absorbance was recorded at 490 nm with a 96-well plate reader. G150 values were calculated from a series of percent of cell viability at a range of compound concentration. GraphPad Prism 8 software or SigmaPlot 13.0 was used to generate G150 values.

T3 sequence (P16234 24-1089): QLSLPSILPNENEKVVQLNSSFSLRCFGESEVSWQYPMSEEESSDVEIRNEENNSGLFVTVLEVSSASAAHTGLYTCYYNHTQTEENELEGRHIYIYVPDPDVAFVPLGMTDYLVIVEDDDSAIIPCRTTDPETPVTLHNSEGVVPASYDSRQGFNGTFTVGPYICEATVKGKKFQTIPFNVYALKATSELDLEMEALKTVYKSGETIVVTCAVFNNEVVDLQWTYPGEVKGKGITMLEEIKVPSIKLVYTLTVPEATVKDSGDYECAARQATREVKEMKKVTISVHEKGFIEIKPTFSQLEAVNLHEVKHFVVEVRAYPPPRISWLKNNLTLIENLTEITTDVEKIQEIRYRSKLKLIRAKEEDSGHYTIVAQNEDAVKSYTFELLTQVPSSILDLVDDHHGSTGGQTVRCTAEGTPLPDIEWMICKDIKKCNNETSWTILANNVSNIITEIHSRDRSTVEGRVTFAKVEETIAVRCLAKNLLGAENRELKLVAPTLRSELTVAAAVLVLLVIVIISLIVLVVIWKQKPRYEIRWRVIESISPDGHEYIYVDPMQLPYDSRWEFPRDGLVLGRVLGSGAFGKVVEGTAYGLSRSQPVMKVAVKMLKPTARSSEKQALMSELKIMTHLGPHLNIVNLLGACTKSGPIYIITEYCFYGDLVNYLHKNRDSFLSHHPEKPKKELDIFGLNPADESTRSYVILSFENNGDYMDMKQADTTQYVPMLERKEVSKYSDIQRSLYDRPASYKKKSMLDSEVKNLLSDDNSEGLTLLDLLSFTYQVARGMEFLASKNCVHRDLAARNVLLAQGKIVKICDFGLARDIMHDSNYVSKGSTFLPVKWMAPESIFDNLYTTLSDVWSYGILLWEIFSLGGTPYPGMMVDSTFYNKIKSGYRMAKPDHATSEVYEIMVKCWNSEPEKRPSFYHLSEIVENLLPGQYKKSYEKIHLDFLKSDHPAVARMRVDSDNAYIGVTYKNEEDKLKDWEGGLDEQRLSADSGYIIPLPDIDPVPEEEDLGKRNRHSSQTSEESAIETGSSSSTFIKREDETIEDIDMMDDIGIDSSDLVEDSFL
T4 sequence (P16234 24-1089 D842V): as the sequence (P16234 24-1089) above, with D819V counted along it
T2 sequence (P10721 26-976 D816V): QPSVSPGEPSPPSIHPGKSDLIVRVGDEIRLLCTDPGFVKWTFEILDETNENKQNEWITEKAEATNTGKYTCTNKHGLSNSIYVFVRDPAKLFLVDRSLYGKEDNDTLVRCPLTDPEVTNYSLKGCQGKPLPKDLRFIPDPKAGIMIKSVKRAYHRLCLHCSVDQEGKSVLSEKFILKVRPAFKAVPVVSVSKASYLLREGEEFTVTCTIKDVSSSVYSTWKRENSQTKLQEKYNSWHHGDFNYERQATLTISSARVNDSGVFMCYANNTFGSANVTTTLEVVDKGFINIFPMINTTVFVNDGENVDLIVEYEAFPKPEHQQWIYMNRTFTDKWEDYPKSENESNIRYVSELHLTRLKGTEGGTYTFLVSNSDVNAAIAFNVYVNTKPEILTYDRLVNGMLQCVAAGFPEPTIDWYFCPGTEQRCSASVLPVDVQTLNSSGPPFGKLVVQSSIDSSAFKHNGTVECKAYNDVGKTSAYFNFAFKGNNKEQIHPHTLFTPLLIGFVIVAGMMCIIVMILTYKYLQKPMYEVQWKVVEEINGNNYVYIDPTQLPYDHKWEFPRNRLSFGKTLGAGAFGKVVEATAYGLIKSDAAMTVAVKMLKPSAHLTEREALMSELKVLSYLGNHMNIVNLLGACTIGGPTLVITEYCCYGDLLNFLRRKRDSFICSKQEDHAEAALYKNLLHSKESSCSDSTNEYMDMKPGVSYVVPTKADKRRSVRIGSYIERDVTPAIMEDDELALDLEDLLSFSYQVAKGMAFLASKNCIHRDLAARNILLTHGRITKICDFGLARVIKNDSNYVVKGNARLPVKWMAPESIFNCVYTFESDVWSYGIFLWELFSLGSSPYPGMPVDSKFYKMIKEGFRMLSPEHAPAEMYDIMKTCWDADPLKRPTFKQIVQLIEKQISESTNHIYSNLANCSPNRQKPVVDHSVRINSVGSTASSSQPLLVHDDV
T1 sequence (P10721 26-976): as the sequence (P10721 26-976 D816V) above, with V791D counted along it

SMILES	IC50 [1]	IC50 [2]	IC50 [3]	IC50 [4]	IC50 [5]
O=C(Nc1cn2cc(-c3cccc(F)c3CO)ccc2n1)[C@@H]1C[C@@H]1F [Example 57, (1 S,2 S)-2-fluoro-N-(6-(3-fluoro-2-(hydroxymethyl)phenyl)imidazo[1,2-a]pyridin-2-yl)cyclopropane-1-carboxamide]	> 1 µM	0.101 to 1 µM	0.101 to 1 µM	0.01 to 0.1 µM	0.101 to 1 µM
NCc1c(F)cccc1-c1ccc2nc(NC(=O)[C@@H]3C[C@@H]3F)cn2c1 [Example 74, (1 S,2 S)-N-(6-(2-(aminomethyl)-3-fluorophenyl)imidazo[1,2-a]pyridin-2-yl)-2-fluorocyclopropanecarboxamide]	> 1 µM	> 1 µM	> 1 µM	> 1 µM	–
CC(=O)NCc1c(F)cccc1-c1ccc2nc(NC(=O)[C@@H]3C[C@@H]3F)cn2c1 [Example 75, (1 S,2 S)-N-(6-(2-(acetamidomethyl)-3-fluorophenyl)imidazo[1,2-a]pyridin-2-yl)-2-fluorocyclopropanecarboxamide]	> 1 µM	> 1 µM	> 1 µM	> 1 µM	–
CNCc1c(F)cccc1-c1ccc2nc(NC(=O)[C@@H]3C[C@@H]3F)cn2c1 [Example 80, (1 S,2 S)-2-fluoro-N-(6-(3-fluoro-2-((methylamino)methyl)phenyl)imidazo[1,2-a]pyridin-2-yl)cyclopropanecarboxamide]	> 1 µM	> 1 µM	> 1 µM	> 1 µM	–
CC(C)NCc1c(F)cccc1-c1ccc2nc(NC(=O)[C@@H]3C[C@@H]3F)cn2c1 [Example 81, (1 S,2 S)-2-fluoro-N-(6-(3-fluoro-2-((isopropylamino)methyl)phenyl)imidazo[1,2-a]pyridin-2-yl)cyclopropanecarboxamide]	> 1 µM	> 1 µM	> 1 µM	> 1 µM	–
COCCOCc1c(F)cccc1-c1ccc2nc(NC(=O)[C@@H]3C[C@@H]3F)cn2c1 [Example 82]	> 1 µM	> 1 µM	0.101 to 1 µM	0.101 to 1 µM	–
O=C(Nc1cn2cc(-c3cccc(F)c3COCCO)ccc2n1)[C@@H]1C[C@@H]1F [Example 83, (1 S,2 S)-2-fluoro-N-(6-(3-fluoro-2-((2-hydroxyethoxy)methyl)phenyl)imidazo[1,2-a]pyridin-2-yl)cyclopropanecarboxamide]	> 1 µM	> 1 µM	0.101 to 1 µM	0.101 to 1 µM	–

From US20220242861A1, “IMIDAZOPYRIDINYL COMPOUNDS AND USE THEREOF FOR TREATMENT OF PROLIFERATIVE DISORDERS” (1ST Biotherapeutics, Inc., priority 2019, published 2022)
